Each structure is given as a SMILES string.

Data set [1] has as its target T1, pendrin (Homo sapiens, UniProt O43511).
T1 construct: endogenous in cells; host or cells: primary HNE and HBE cells, IL-4 treated
Nature of the data set: Pendrin-mediated Cl^−/HCO3^− exchange in IL-4-treated HNE and HBE cells. The data set is classed as cell-based. The protocol:
Chinese hamster ovary (CHO)-K1 cells were maintained in a DMEM medium containing 10% fetal bovine serum (FBS), 100 units/ml penicillin and 100 100 μg/ml streptomycin. CHO-K1 cells were stably transfected with pcDNA3.1 encoding halide sensor YFP-H148Q/I152L/F46L and human wild-type (WT)-pendrin. For distribution of primary culture of human nasal cavity epithelium (HNE) cells, passage-2 cells were seeded into transwell-transparent culture inserts with a pore size of 0.45 μm (Costar Co., Cambridge, MA) at a density of 2×10^5 cells/cm^2. […]
For measurement of Cl^−/HCO3^− exchange activity, intracellular pH (pHi) was measured in WT-pendrin expressing CHO-K1 and HNE cells using pH sensor SNARF5-AM (Molecular Probes). The cells were treated with 5 μM SNARF5-AM for 30 minutes, and then were equipped in a perfusion chamber on the stage of a reverse fluorescence microscope (Nikon, Tokyo, Japan) equipped with a cooled charge-coupled device camera (Zyla sCMOS), image acquisition and analysis software (Meta Imaging Series 7.7). […] SNARF5 fluorescence was recorded at 515±10 nm of the excitation wavelength and 640±10 nm of the emission wavelength, and intracellular pH calibration was performed with a solution including 145 mM KCl, 10 mM HEPES and […] nigericin having a calibrated pH to 6.2-7.6.

Data set [2] in a line: Auditory brainstem response (ABR) hearing threshold in mice. The format is in vivo, mouse. Conditions: 10 mg/kg/day for 1 week. Here is the method:
The negative effect of F56 was examined by i.p administering of F56 10 mg/kg to female balb/c mice every 24 hours for 7 days. In 24 hours after the last administration, the hearing of mice was measured and serum was obtained. According to the manufacturer's protocol, the total serum level of triiodothyronine (T3) or thyroxine (T4) using a mouse ELISA kit (Calbiotech, T3043T-100 or T4044T-100).
The hearing level was measured in each mouse by measuring ABR threshold using an auditory-evoking potential workstation and BioSig software (Tucker-Davis Technologies, Alachua, FL, USA). The output from the speaker was calibrated using PCB 377C10 microphone (PCB Piezotronics, Inc. New York, NY, USA) and found to be within ±4 dB over the tested frequency range. After anesthetizing the mice, each ear was stimulated with an ear probe sealed inside the ear canal. The body temperature of the mice was maintained at 38° C. with an isothermal heating water-pad. The intensity of the click sound decreased from 70 dB SPL to 10 dB SPL with a 5-dB decrease. The mean value of ABR was calculated and the auditory threshold was defined as the lowest ABR response until wave I of ABR was no longer visually discernible.

Data set [3] has as its system pendrin. The experiment in a line: Pendrin protein expression in LPS-treated human alveolar epithelial cells (hAEC). The data set is classed as cell-based. The protocol: The lung tissue was harvested and dissolved in a homogenization buffer (PRO-PREP™ extraction solution, iNtRON Biotechnology). The sample was centrifuged at 4° C. for 30 minutes at 13000 g. The supernatant protein concentration was determined by BCA analysis (Thermo Fisher Scientific). The same amount of protein was separated by SDS/PAGE and transferred to a nitrocellulose membrane. The membrane was blocked with 5% skim milk in TBS-T (TBS (170-6435, Bio-Rad Laboratories) and 1% Tween-20 (170-6531, Bio-Rad Laboratories) for 1 hours. Then, the membrane was cultured overnight with the primary antibody diluted with 5% skim milk in TBS-T at 4° C. After washing with TBS-T, the blot was cultured with horseradish peroxidase-combined secondary antibody and 5% skim milk in TBS-T at a room temperature for 1 hour, and then developed using Super-Signal West Pico chemiluminescence detection kit. The antibody used in the present invention includes rabbit SLC26A4 (ab98091, abcam), mouse phospho-Iκ (9246, Cell Signaling Technology), mouse Iκ (4814, Cell Signaling Technology), and rabbit α-tubulin (PA5-16891, Cell Signaling Technology). Western blot quantization was performed using ImageJ (Image Processing and Analysis in Java; NIH, USA) software.

T1 sequence (O43511 whole entry): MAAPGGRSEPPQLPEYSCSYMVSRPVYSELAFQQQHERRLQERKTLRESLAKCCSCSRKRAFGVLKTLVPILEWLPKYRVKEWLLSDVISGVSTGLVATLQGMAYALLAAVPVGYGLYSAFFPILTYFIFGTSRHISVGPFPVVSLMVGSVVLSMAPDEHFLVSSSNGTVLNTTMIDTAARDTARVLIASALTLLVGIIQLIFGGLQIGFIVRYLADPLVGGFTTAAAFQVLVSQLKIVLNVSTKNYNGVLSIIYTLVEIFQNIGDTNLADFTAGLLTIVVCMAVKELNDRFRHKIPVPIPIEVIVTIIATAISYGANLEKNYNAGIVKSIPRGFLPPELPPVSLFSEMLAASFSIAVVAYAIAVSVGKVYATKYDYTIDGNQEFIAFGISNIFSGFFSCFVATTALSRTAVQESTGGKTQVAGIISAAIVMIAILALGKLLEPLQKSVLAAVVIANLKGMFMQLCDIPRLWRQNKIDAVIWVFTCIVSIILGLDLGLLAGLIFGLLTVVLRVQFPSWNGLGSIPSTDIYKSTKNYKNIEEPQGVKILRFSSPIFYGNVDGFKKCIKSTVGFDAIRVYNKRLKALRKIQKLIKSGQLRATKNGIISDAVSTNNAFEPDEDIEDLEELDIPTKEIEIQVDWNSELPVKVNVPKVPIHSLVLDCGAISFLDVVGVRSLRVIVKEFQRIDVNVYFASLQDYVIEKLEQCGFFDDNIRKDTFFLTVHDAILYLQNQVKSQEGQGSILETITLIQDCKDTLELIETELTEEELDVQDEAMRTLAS

On to `CC(C)(C)c1ccc(C2=NC(=Cc3cccs3)C(=O)O2)cc1` [F56, 2-(4-(tert-butyl)phenyl)-4-(thiophen-2-ylmethylene)oxazol-5(4H)-one], for which the “inhibition of pendrin-mediated Cl^−/HCO3^− exchange activity” value against pendrin [1] (IL-4-treated HNE and HBE cells, acute treatment) is “potentially inhibited”. Besides, the “IL-4-induced upregulation of the Cl^−/HCO3^− exchange activity” value on pendrin [1] (long-term treatment, HNE cells) is given as “strongly reduced”. The hearing threshold entry in data set [2] is recorded as “not changed”. Also, the “protein expression level of pendrin” value in the data set with pendrin [3] is reported as “reduced”.

For the origin of these results see patent publication US12691101B2, “Compound and method for preventing or treating of respiratory diseases comprising the same as an active ingredient” (YONSEI UNIVERSITY, UNIVERSITY - INDUSTRY FOUNDATION (UIF), priority 2019, dated 2026).
